Data set [1] has as its system renal function in anesthetized rats. As to conditions: for urine flow rate / urine osmolality / Na+ excretion / free water clearance: anesthetized rats; for glomerular filtration rate (GFR): rat, in vivo. How it is done: NaCl reabsorption in the thick ascending limb of the Loop of Henle (TALH) creates free water that is reabsorbed in the collecting duct in the presence of vasopressin. […] Either V (3 mg/kg), F (5 mg/kg), both V and F (V/F) or the vehicles were administered intraduodenally.

Data set [2] in a line: Human single dose crossover drug interaction study, pharmacokinetics. It counts as in vivo. The protocol: (§1) The study lasted approximately 30 days, and included a pre-enrollment evaluation of up to 2 weeks before dose administration, and three 2-day (2-night) confinement periods. The doses were separated by at least a 1 week interval. The clinical portion of the study was completed in approximately 2 months.
(§2) The VPA-985 suspension (25 mg and 50 mg powder reconstituted) was administered in 150 mL of Sprite® brand lemon-lime soda (a product of The Coca-Cola Company) followed by 100 mL of room-temperature water (250 mL of fluid total).
(§3) Areas under concentration-time curves(AUCT) (AUC) and AUC truncated at the last observed concentration (CT)AUCT) were determined by using the linear/log trapezoidal method. Statistical comparisons were made using by an analysis of variance (ANOVA). Confidence limits (90%) for pharmacokinetic parameters were constructed on a log scale using the two one-sided tests procedure. An interaction was judged to be significant if a 35% difference was detected between either single agent and the two drugs administered concomitantly.

Another data set deals with healthy men. Nature of the data set: Human single dose crossover drug interaction study, pharmacodynamics (urine flow, electrolytes). The conditions noted are these: for mean urine volume: 0 to 4 h interval, single oral doses VPA-985 75 mg; for mean urine volume / peak urine flow: furosemide 40 mg, or both; for peak urine flow: single oral doses: VPA-985 75 mg. It counts as in vivo. How it is done: as §1, §2, §3

Setting [3] is: after intraduodenal administration (V 3 mg/kg, F 5 mg/kg).
Where [4] appears, read: baseline, before compound administration.
The mark [5] stands for this setting: after coadministration with VPA-985 75 mg.
The mark [6] stands for this setting: VPA-985 75 mg administered with furosemide 40 mg.

Two molecules from patent US6656931B2, “Vasopressin antagonist and diuretic combination” (Wyeth Holdings Corporation, priority 1999, dated 2003) can be followed below.

The structures appear in SMILES notation. Where two headings read alike, the source gives them in different places. A value given as a limit tells only on which side of the number the result lay.

In data set [1] (setting [3]), `NS(=O)(=O)c1cc(C(=O)O)c(NCc2ccco2)cc1Cl` [furosemide, reference compound] displayed a urine flow rate of 17.02 ± 4.86 µL/min and a urine osmolality of 699±69 mOsm/kg. In data set [1] (setting [4]), this molecule returned a urine flow rate of 3.74 ± 0.18 µL/min and a urine osmolality of 1515±96 mOsm/kg. Also, the glomerular filtration rate (GFR) in data set [1] amounted to 1.87 ± 0.15 mL/min. In data set [2] (setting [5]), the “CLr of furosemide, versus furosemide alone” value is given as “no difference” and the “amount of furosemide recovered from urine (Ut), versus furosemide alone” value is “no difference”. In addition, the mean urine volume in the data set on healthy men is given as 1524 mL. The molecule also displayed a serum potassium in the data set with healthy men (at 0 h) of 4.2 mmol/L. The molecule also displayed a serum potassium in the data set on healthy men (at 4 hours after the dose) of 3.9 mmol/L. Moreover, the peak urine flow with healthy men (healthy men) amounted to 9.3 mL/min.

Take `Cc1ccc(F)cc1C(=O)Nc1ccc(C(=O)N2Cc3cccn3Cc3ccccc32)c(Cl)c1` [VPA-985, N-[4-(5H-pyrrolo[2,1-c][1,4]benzodiazepin-10(11H)ylcarbonyl)-3-chlorophenyl]-5-fluoro-2-methyl-benzamide]: in data set [1] (setting [3]), the “Na+ excretion” value amounted to 0.67±0.34 μEq/min, the free water clearance was -6.96 ± 5.17 µL/min, the urine flow rate was determined as 19.51 ± 3.80 µL/min and the urine osmolality was 571±145 mOsm/kg. Besides, in data set [1] (setting [4]), the “Na+ excretion” value is on record as 0.10±0.02 μEq/min, the free water clearance was -17.31 ± 1.84 µL/min, the urine flow rate turned out to be 5.26 ± 1.13 µL/min and the urine osmolality is 1456±166 mOsm/kg. Besides, the glomerular filtration rate (GFR) in data set [1] is 2.04 ± 0.15 mL/min. In data set [2] (setting [6]), the “AUCs of VPA-985, compared to VPA-985 alone” value was “no differences” and the “Cmax of VPA-985, compared to VPA-985 alone” value is on record as “no differences”. This molecule also gave an AUC in data set [2] (male, human, in vivo, single oral dose VPA-985 75-mg suspension alone, healthy men) of 968 ng·h/mL. For the same molecule, the Cmax in data set [2] (male, human, in vivo, single oral dose VPA-985 75-mg suspension alone, healthy men, read-out: mean peak concentration (Cmax) of VPA-985) was determined as 617 ng/mL. In addition, the Tmax in data set [2] (male, human, in vivo, single oral dose VPA-985 75-mg suspension alone, healthy men, read-out: mean time of peak concentration (tmax) of VPA-985) is < 1 h. The molecule also came in with a mean urine volume in the data set with healthy men of 1157 mL. In the data set with healthy men (0 to 4 hours after the dose), the “increase in mean serum sodium” value stood at 2 mmol/L. Besides, the “0 to 4 h urinary excretion of sodium, potassium, chloride and magnesium” value with healthy men (VPA-985 alone compared with VPA-985 and furosemide administered concomitantly) is recorded as “significantly less”. Moreover, the “tmax of peak effect in urine flow” value in the data set on healthy men (after administration of single doses, healthy men) is given as “approximately 1.5 h”. Also, the “effect on serum potassium” value with healthy men (single oral dose VPA-985 75 mg alone) is recorded as “did not alter”. Moreover, in the data set with healthy men (healthy men), the peak urine flow was found to be 8.4 mL/min.
